These results are taken from paper PMC6520365, “Structural and functional characterization of the PDZ domain of the human phosphatase PTPN3 and its interaction with the human papillomavirus E6 oncoprotein” (Scientific Reports, 2019).

The assay concerns the target T1, PTPN3-PDZ (Homo sapiens, UniProt P26045).
T1 construct: GST (followed by a TEV cleavage site) (N, cleaved yes); made in house; host or cells: E. coli BL21 Star (DE3)
T1 sequence (P26045 510-582 limits assumed): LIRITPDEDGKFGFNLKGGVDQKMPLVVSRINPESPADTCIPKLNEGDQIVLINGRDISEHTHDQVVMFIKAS
Kind of assay: NMR titration (1H,15N HSQC chemical shift perturbation) of PBM peptide affinity for PTPN3-PDZ. The class given is binding. The method, then:
The affinities of HPV16E6 PBM, HPV18E6 PBM, p38γ PBM and HBVc PBM for PTPN3-PDZ were measured by NMR titration. We followed ^1H, ^15N chemical shift perturbations of PTPN3-PDZ signals in the ^1H-^15N HSQC spectra as a function of increasing concentrations of the PBM peptide to determine the dissociation constant (KD) (Fig. S1). […] The KD values are all in the same tenth-of-micromolar range for the viral PBMs and are close to the one of the cellular partner p38γ. […]
Briefly, the unlabeled peptides (stock solutions ranging from 2.8 to 5.7 mM) at pH 7.5 were added stepwise in a sample initially containing 240–260 μL of ^15N-labeled PTPN3-PDZ at a concentration of 95 or 149 μM. A series of ^1H, ^15N HSQC spectra was recorded for the different titration points. Chemical shift changes were calculated using the free PTPN3-PDZ signals as a reference. Chemical shift differences in the cross-peaks by titration were calculated using the relationship: Δδ = ((ΔδHN)^2 + (0.15 × ΔδN)^2)^0.5 where ΔδHN and ΔδN are changes in the ^1H and ^15N chemical shifts in ppm, respectively. […]

Ends that are not written are not given here.

For RQERLQRRETQV [HPV18E6 PBM], the Kd worked out at 37 ± 20 µM.
